Results as given in paper PMC6271085, “Synthesis and Cytotoxic Evaluation of a Series of 2-Amino-Naphthoquinones against Human Cancer Cells” (Molecules, 2014).
Values after ≈ are worked out from the molar mass of the structure shown. Values joined by “and” are separate entries in the source; they are usually repeats but may differ in a detail not shown here. Identical values can stand only once. Like-named read-outs stand apart in the source and are kept apart here.

Legend:
[1] = system: SF-295 (glioblastoma) cells; experiment: MTT cytotoxicity assay, SF-295; format: cell-based; conditions: Homo sapiens; for IC50: SF-295, 72 h, SF-295, 72h exposure; for inhibition at 5 µg/mL: SF-295, 5 µg/mL, 72 h, MTT, read-out: Percentage of inhibition of cell growth (GI%), average
Text: (§1) This experiment evaluated the cytotoxicity of aminonaphthoquinones (ANPQs) against human cancer cells, in vitro. This analysis is part of an initial screening for determination of the potential antitumor of these samples. The human cancer cell strains used were SF-295 (glioblastoma-human), MDAMB-435 (melanoma), HCT-8 (colon), HCT-116 (colon), HL-60 (leukemia), OVCAR-8 (ovarian cancer), NCI-H358M (human bronchoalveolar lung carcinoma) and PC3-M (highly metastatic prostate cancer cell line). All cancer cells were provided by the National Cancer Institute (Rockville, MD, USA) and were cultured in RPMI 1640 supplemented with 10% fetal bovine serum and 1% antibiotics, maintained at 37 °C and atmosphere containing 5% CO2. The peripheral blood mononuclear cells (PBMC) were isolated by gradient of density (Ficoll-Hypaque) and cultivated in RPMI 1640 medium, supplemented with bovine foetal serum (20%), antibiotic (1%) and phytohemagglutinin (4%). The cells were maintained at 37 °C and atmosphere containing 5% CO2.
(§2) The different samples of ANPQs were diluted in pure sterile DMSO. The substances were tested at a concentration of 5 µg·mL^−1. In order to determine the IC50 the substances were tested at increasing concentrations in serial dilutions (5–0.010 µg·mL^−1).
(§3) Analysis of cytotoxicity by the MTT method has been used in the screening program at the National Cancer Institute of the United States (NCI), which tests over 10,000 samples per year. It is a rapid, sensitive and inexpensive test. It was first described by Mosman as having the ability to analyze the viability and the metabolic state of cells. It is a colorimetric analysis based on conversion of the salt 3-(4,5-dimethyl-2-thiazole)-2,5-diphenyl-2H-tetrazolium bromide (MTT) to formazan-blue by the mitochondrial enzymes found only in metabolically active cells. The study of the cytotoxicity by MTT method allows easily defining the cytotoxicity but not the mechanism of action.
(§4) The cells were plated at a concentration of 0.1 × 10^6 cell mL^−1 to OVCAR-8, NCI-H358M, PC3-M, SF-295 and MDA-MB435 strains, 0.7 × 10^5 cell mL^−1 to HCT-8 and HCT-116 strains, 0.3 × 10^6 to HL-60 strain, 1.0 × 10^6 cell mL^−1 to PBMC. The plates were incubated for 72 h at 5% CO2 at 37 °C. After, they were centrifuged and the supernatant removed. Then the solution of MTT (tetrazolium salt, 150 µL) was added, and the plates were incubated for 3 h. The absorbance was read after dissolving the precipitate with 150 µL of pure DMSO in a spectrophotometer plate at 595 nm.

[2] = system: NCI-H358M (bronchoalveolar lung carcinoma) cells; experiment: MTT cytotoxicity assay, NCI-H358M; format: cell-based; conditions: Homo sapiens, 72h exposure
Text: as §1, §2, §3, §4

[3] = system: HL-60 (leukemia) cells; experiment: MTT cytotoxicity assay, HL-60; format: cell-based; conditions: Homo sapiens; HL-60, 72h exposure
Text: as §1, §2, §3, §4

[4] = system: MDAMB-435 cells; experiment: MTT cytotoxicity assay, MDAMB-435; format: cell-based; conditions: Homo sapiens; for IC50: MDA-MB-435, 72 h, MDAMB-435, 72h exposure; for inhibition at 5 µg/mL: MDA-MB-435, MDAMB-435, 5 µg/mL, 72 h, MTT, read-out: Percentage of inhibition of cell growth (GI%), average
Text: as §1, §2, §3, §4

[5] = MTT cytotoxicity assay, PBMC; format: cell-based; conditions: peripheral blood mononuclear cells (PBMC); PBMC normal cells, 72h exposure
Text: as §1, §2, §3, §4

[6] = system: HCT-116 (colon) cells; experiment: MTT cytotoxicity assay, HCT-116; format: cell-based; conditions: Homo sapiens; HCT-116, 72h exposure
Text: as §1, §2, §3, §4

[7] = system: PC3-M (prostate) cells; experiment: MTT cytotoxicity assay, PC3-M; format: cell-based; conditions: Homo sapiens, PC-3M, 72 h, 72h exposure
Text: as §1, §2, §3, §4

[8] = system: HCT-8 (colon) cells; experiment: MTT cytotoxicity assay, HCT-8; format: cell-based; conditions: Homo sapiens; for IC50: HCT-8, 72 h, HCT-8, 72h exposure; for inhibition at 5 µg/mL: HCT-8, 5 µg/mL, 72 h, MTT, read-out: Percentage of inhibition of cell growth (GI%), average
Text: as §1, §2, §3, §4

[9] = system: OVCAR-8 (ovarian cancer) cells; experiment: MTT cytotoxicity assay, OVCAR-8; format: cell-based; conditions: Homo sapiens; OVCAR-8, 72h exposure
Text: as §1, §2, §3, §4

[10] = system: HL-60 (leukemia) cells; design: method as in PMID 16042338; conditions: cited from earlier work
[11] = system: HCT-8 (colon) cells; design: method as in PMID 16042338; conditions: cited from earlier work

Row | melting point | SMILES | IC50 [1] | inhibition at 5 µg/mL [1] [%] | IC50 [2] | IC50 [3] | IC50 [4] | inhibition at 5 µg/mL [4] [%] | IC50 at 72 h [5] | IC50 [6] | IC50 [7] | IC50 [8] | inhibition at 5 µg/mL [8] [%] | IC50 [9] | IC50 [10] [nM] | IC50 [11] [µg/mL]
1 | 93 to 95 °C | CCOC(=O)CNC1=CC(=O)c2ccccc2C1=O [compound 7, Ethyl 2N-(1,4-dioxo-1,4-dihydronaphthalen-2-yl)acetate] | 0.83 µg/mL and 3.19 µM | 99.5 | 0.64 µg/mL and 2.46 µM | 1.24 µg/mL and 4.77 µM | 1.33 µg/mL and 5.12 µM | 100 | 9 µg/mL and 34.7 µM | 2.13 µg/mL and 8.2 µM | 1.63 µg/mL and 6.28 µM | 1.84 µg/mL and 7.09 µM | 99.5 | 2 µg/mL and 7.7 µM |  | 
2 |  | C[C@H](NC1=CC(=O)c2ccccc2C1=O)C(=O)O [compound 5, N-(1,4-Dioxo-1,4-dihydronaphthalen-2-yl)-L-alanine] | 2560 nM | 83.8 | 0.9 µg/mL and 3.36 µM | 1.05 µg/mL and 4.27 µM | 1990 nM | 100 | 7.34 µg/mL and 29.9 µM | 1.11 µg/mL and 4.52 µM | 1.61 µg/mL (≈ 6.57 µM) | 3380 nM | 84.1 | 2.36 µg/mL and 9.61 µM |  | 
3 |  | O=C(O)CNC1=CC(=O)c2ccccc2C1=O [compound 2, 2N-(1,4-Dioxo-1,4-dihydronaphthalen-2-yl)acetic acid] | 0.57 µg/mL and 2.46 µM | 81.1 | > 5 µg/mL and > 21.6 µM | 0.7 µg/mL and 3.02 µM | 1.21 µg/mL and 5.23 µM | 100 | 5.51 µg/mL and 23.8 µM | 1.31 µg/mL and 5.66 µM | > 5 µg/mL and > 21.6 µM | 0.89 µg/mL and 3.84 µM | 81.7 | 3.89 µg/mL and 16.8 µM |  | 
4 |  | O=C1C=C(N[C@@H](Cc2ccccc2)C(=O)O)C(=O)c2ccccc21 [compound 6, N-(1,4-Dioxo-1,4-dihydronaphthalen-2-yl)-L-phenylalanine] | 0.65 µg/mL and 2.01 µM | 86.1 | 0.82 µg/mL and 2.54 µM | 1.31 µg/mL and 4.07 µM | 1.46 µg/mL and 4.53 µM | 100 | 12.2 µg/mL and 37.8 µM | 2.15 µg/mL and 6.67 µM | 1.7 µg/mL and 5.28 µM | 1.59 µg/mL and 4.94 µM | 86.1 | 1.87 µg/mL and 5.81 µM |  | 
5 | 120 to 122 °C | CCOC(=O)CCNC1=CC(=O)c2ccccc2C1=O [compound 8, Ethyl 3N-(1,4-dioxo-1,4-dihydronaphthalen-2-yl)propanoate] |  | 32.7 |  |  |  | 11.7 |  |  |  |  | 28.2 |  |  | 
6 | 65 to 68 °C | CCOC(=O)[C@H](C)NC1=CC(=O)c2ccccc2C1=O [compound 9, Ethyl [(S) 2-(1,4-dioxo-1,4-dihydronaphthalen-2-ylamino)] propanoate] | 1.68 µg/mL and 6.13 µM | 75.1 | 0.98 µg/mL and 3.58 µM | 1.74 µg/mL and 6.35 µM | 1.18 µg/mL and 4.31 µM | 100 | 17.6 µg/mL and 64.3 µM | 3.11 µg/mL and 11.4 µM | 2.62 µg/mL and 9.57 µM | 1.33 µg/mL and 4.86 µM | 75.4 | 1.88 µg/mL and 6.87 µM |  | 
7 |  | O=C(O)CCCNC1=CC(=O)c2ccccc2C1=O [compound 11, 4-(1,4-Dioxo-1,4-dihydronaphthalen-2-ylamino)butanoic acid] |  | 61.2 |  |  |  | 11.1 |  |  |  |  | 61.4 |  |  | 
8 |  | CCOC(=O)CCCNC1=CC(=O)c2ccccc2C1=O [compound 10, Ethyl 4-(1,4-dioxo-1,4-dihydronaphthalen-2-ylamino)butanoate] |  | 49.2 |  |  |  | 59.1 |  |  |  |  | 49.6 |  |  | 
9 | 198 to 200 °C | O=C(O)CCNC1=CC(=O)c2ccccc2C1=O [compound 3, 3N-(1,4-Dioxo-1,4-dihydronaphthalen-2-yl)propanoic acid] |  | 56 |  |  |  | 26.4 |  |  |  |  | 56 |  |  | 
10 |  | COc1cccc2c1C(=O)c1c(O)c3c(c(O)c1C2=O)C[C@@](O)(C(=O)CO)C[C@@H]3O[C@H]1C[C@H](N)[C@H](O)[C@H](C)O1 [Dox, Doxorubicin, reference compound] | 0.23 µg/mL |  | 0.9 µg/mL and 1.65 µM | 0.02 µg/mL and 30 nM | 0.48 µg/mL and 830 nM |  | 0.23 µg/mL and 420 nM | 0.01 µg/mL and 20 nM | 0.2 µg/mL and 360 nM | 0.07 µg/mL and 130 nM |  | 0.26 µg/mL (≈ 0.478 µM) |  | 
11 |  | Cc1cc(=O)c2c(O)c([C@@H]3O[C@H](CO)[C@@H](O)[C@H](O)[C@H]3O)c(O)cc2o1 [biflorin] |  |  |  |  |  |  |  |  |  |  |  |  | 1950 | 0.88 (≈ 2.48 µM)
12 | 164 to 167 °C (dec.) | O=C1C=C(N2CCC[C@H]2C(=O)O)C(=O)c2ccccc21 [compound 4, N-(1,4-Dioxo-1,4-dihydronaphthalen-2-yl)-L-proline] |  | 59.3 |  |  |  | 36.7 |  |  |  |  | 59.1 |  |  | 
